For the experiment, the system named is Human osteosarcoma U2OS cells. In words: Acidic vesicle formation (lysosome/autolysosome staining, LysoView 633 / LysoTracker Deep Red), stimulation of autophagy. It counts as cell-based. Conditions: 24 hours; for activation at 0.8 µM: read-out: Activity (percentage increase in acidic vesicle formation over the DMSO-treated control); for activation at 10 µM: read-out: increase in acidic vesicle formation over the DMSO-treated control. The protocol: Lysosomes play a fundamental role in the autophagic pathway by fusing with autophagosomes and creating ‘autolysosomes’ in order to digest their contents. Stimulation of lysosome and autolysosome formation by a compound is indicative of a stimulation of autophagy. The ability of compounds to stimulate lysosome and autolysosome formation, and thus autophagy, in live cells was assessed via fluorescent microscopy using various fluorescent stains for labelling and tracking acidic organelles (including lysosomes and autolysosomes) such as: LysoView™ 650 (70059 and 70059-T, Biotium), LysoView™633 (70058 and 70058-T, Biotium) and LysoTracker™ Deep Red (L12492, ThermoFisher Scientific). The cellular phenotype was quantitatively assessed for the induction of acidic vesicle formation and compared to a non-treated control, thus providing a measure of the ability of the compound under investigation to stimulate autophagy.
Representative procedure using LysoView™633 dye or LysoTracker™ Deep Red dye: Human osteosarcoma U2OS cells (40,000 cells/well) were seeded in a 24 well glass bottom plate (Sensoplate, Greiner Bio-One) and were incubated overnight in a humidified atmosphere at 37° C. and 5% CO2. Cells were grown in DMEM (Gibco) supplemented with 10% Fetal Bovine Serum (FBS) and 100 units/ml penicillin and 100 μg/ml streptomycin (Invitrogen). After the attachment period, cells were treated with different compounds of interest (at various concentrations in DMSO) or DMSO (non-treated control) in cell culture medium and were incubated for 24 hours. Compound-containing medium was removed and cells were incubated with pre-warmed cell culture medium containing 1× LysoView™ 633 (70058 and 70058-T, Biotium) or 50 nM LysoTracker™ Deep Red (L12492, ThermoFisher Scientific) for 45 minutes at 37° C. Finally, cell nuclei were stained for 10 minutes using Hoechst 33342 (1 μg/mL) and then the medium was replaced with fresh medium. The 24 well plate was then fitted into a heated stage on the microscope and cells maintained at 37° C. Images were captured using appropriate filter set for Cy5 and DAPI detection with the EVOS M7000 Microscope (ThermoFisher Scientific). The cellular phenotype was visually assessed for the induction of acidic vesicle formation relative to the non-treated control; multiple images were acquired and analysed using ImageJ or Cell Profiler.

Structures can show the parent of a compound that is named as a salt.

In the case of `CCOc1ccc(OC(F)(F)F)cc1CN1CCN[C@@H](C)C1` [Compound 38, (S)-1-(2-ethoxy-5-(trifluoromethoxy)benzyl)-3-methylpiperazine hydrochloride], the activation at 0.8 µM fell in the range of 10 to 30% and the activation at 10 µM is not below 25%.

With `CCOc1ccc(CN2CCC(CN)C2)cc1Cl` (stereo not shown) [Compound 39, (1-(3-chloro-4-ethoxybenzyl)pyrrolidin-3-yl)methanamine hydrochloride], the activation at 0.8 µM is 30 to 50% and the activation at 10 µM was not below 25%.

Consider `CCOc1ccc(Cl)cc1CN1CCNCC1` [Compound 40, 1-(5-chloro-2-ethoxybenzyl)piperazine hydrochloride], for which the activation at 0.8 µM was in the range of 10 to 30% and the activation at 10 µM was not below 25%.

With `CCOc1ccc(Cl)cc1CN1CCOC(CN)C1` (stereo not shown) [Compound 41, (4-(5-chloro-2-ethoxybenzyl)morpholin-2-yl)methanamine hydrochloride], the activation at 0.8 µM was 10 to 30% and the activation at 10 µM was not below 25%.

Take `CCOc1ccc(C(F)(F)F)cc1CCN1CC[C@@H](CN)C1` [Compound 42, (S)-(1-(2-ethoxy-5-(trifluoromethyl)phenethyl)pyrrolidin-3-yl)methanamine hydrochloride]: the activation at 0.8 µM fell in the range of 50 to 100% and the activation at 10 µM is not below 25%.

Take `CCCOc1ccc(Cl)cc1CCN1CCC[C@@H](CN)C1` [Compound 43, (S)-(1-(5-chloro-2-propoxyphenethyl)piperidin-3-yl)methanamine hydrochloride]: the activation at 0.8 µM fell in the range of 50 to 100% and the activation at 10 µM was not below 25%.

On to `NC[C@@H]1CCN(CCc2cc(Cl)ccc2OCC2CC2)C1` [Compound 44, (S)-(1-(5-chloro-2-(cyclopropylmethoxy)phenethyl)pyrrolidin-3-yl)methanamine hydrochloride], for which the activation at 0.8 µM was 50 to 100% and the activation at 10 µM was not below 25%.

`CCOc1ccc(Cl)cc1CCN1CCC[C@@H](CN)C1` [Compound 45, (S)-(1-(5-chloro-2-ethoxyphenethyl)piperidin-3-yl)methanamine hydrochloride]: the activation at 0.8 µM lay in the range of 50 to 100% and the activation at 10 µM is not below 25%.

For the compound `C[C@H]1CN(Cc2cc(Cl)ccc2OCC2CC2)CCN1` [Compound 46, (S)-1-(5-chloro-2-(cyclopropylmethoxy)benzyl)-3-methylpiperazine hydrochloride], the activation at 0.8 µM fell in the range of 10 to 30% and the activation at 10 µM is not below 25%.

Consider `CCCOc1ccc(Cl)cc1CN1CCN[C@@H](C)C1` [Compound 47, (S)-1-(5-chloro-2-propoxybenzyl)-3-methylpiperazine hydrochloride], for which the activation at 0.8 µM is 30 to 50% and the activation at 10 µM is not below 25%.

For the compound `CCCOc1ccc(Cl)cc1CCN1CC[C@@H](CN)C1` [Compound 48, (S)-(1-(5-chloro-2-propoxyphenethyl)pyrrolidin-3-yl)methanamine hydrochloride], the activation at 0.8 µM was in the range of 10 to 30% and the activation at 10 µM was not below 25%.

In the case of `CCOc1ccc(Cl)cc1CCN1CC[C@@H](CN)C1` [Compound 49, (S)-(1-(5-chloro-2-ethoxyphenethyl)pyrrolidin-3-yl)methanamine hydrochloride], the activation at 10 µM was not below 25%.

In the case of `CCOc1ccc(Cl)cc1CN1CC[C@@H](CN(C)C)C1` [Compound 50, (S)-1-(1-(5-chloro-2-ethoxybenzyl)pyrrolidin-3-yl)-N,N-dimethylmethanamine], the activation at 0.8 µM fell in the range of 10 to 30% and the activation at 10 µM was not below 25%.

As to `CCOc1ccc(Cl)cc1CN1CC[C@@H](CNC)C1` [Compound 51, (S)-1-(1-(5-chloro-2-ethoxybenzyl)pyrrolidin-3-yl)-N-methylmethanamine], the activation at 10 µM is not below 25%.

Regarding `CC(C)COc1ccc(Cl)cc1CN1CC[C@@H](CN)C1` [Compound 52, (S)-(1-(5-chloro-2-isobutoxybenzyl)pyrrolidin-3-yl)methanamine hydrochloride], the activation at 0.8 µM lay within 10 to 30% and the activation at 10 µM was not below 25%.

With `CC(C)Oc1ccc(Cl)cc1CN1CC[C@@H](CN)C1` [Compound 53, (S)-(1-(5-chloro-2-isopropoxybenzyl)pyrrolidin-3-yl)methanamine hydrochloride], the activation at 10 µM was not below 25%.

As to `COCCOc1ccc(Cl)cc1CN1CC[C@@H](CN)C1` [Compound 54, (S)-(1-(5-chloro-2-(2-methoxyethoxy)benzyl)pyrrolidin-3-yl)methanamine hydrochloride], the activation at 10 µM was not below 25%.

As to `NC[C@@H]1CCN(Cc2cc(Cl)cc3c2OCO3)C1` [Compound 55, (S)-(1-((6-chlorobenzo[d][1,3]dioxol-4-yl)methyl)pyrrolidin-3-yl)methanamine hydrochloride], the activation at 0.8 µM is more than 100% and the activation at 10 µM is not below 25%.

On to `CCOc1ccc(Cl)cc1CN1CC[C@H](CN)C1` [Compound 56, (R)-(1-(5-chloro-2-ethoxybenzyl)pyrrolidin-3-yl)methanamine hydrochloride], for which the activation at 0.8 µM was more than 100% and the activation at 10 µM is not below 25%.

With `CCOc1ccc(CN2CC[C@@H](CN)C2)c(F)c1Cl` [Compound 57, (S)-(1-(3-chloro-4-ethoxy-2-fluorobenzyl)pyrrolidin-3-yl)methanamine hydrochloride], the activation at 10 µM is not below 25%.

In the case of `CCOc1cc(F)c(CN2CC[C@@H](CN)C2)cc1Cl` [Compound 58, (S)-(1-(5-chloro-4-ethoxy-2-fluorobenzyl)pyrrolidin-3-yl)methanamine hydrochloride], the activation at 10 µM is not below 25%.

For `CCOc1cc(C#N)c(Cl)cc1CN1CC[C@H](CN)C1` [Compound 60, (R)-4-((3-(aminomethyl)pyrrolidin-1-yl)methyl)-2-chloro-5-ethoxybenzonitrile hydrochloride], the activation at 10 µM is not below 25%.

Turning to `CCOc1cc(C#N)c(Cl)cc1CN1CC[C@@H](CN)C1` [Compound 61, (S)-4-((3-(aminomethyl)pyrrolidin-1-yl)methyl)-2-chloro-5-ethoxybenzonitrile hydrochloride], the activation at 10 µM was not below 25%.

Turning to `CCOc1ccc(Cl)cc1CCN1CCO[C@@H](CN)C1` [Compound 63, (S)-(4-(5-chloro-2-ethoxyphenethyl)morpholin-2-yl)methanamine hydrochloride], the activation at 10 µM was not below 25%.

In the case of `CCOc1ccc(C#N)cc1CCN1CCC[C@@H](CN)C1` [Compound 64, (S)-3-(2-(3-(aminomethyl)piperidin-1-yl)ethyl)-4-ethoxybenzonitrile hydrochloride], the activation at 10 µM is not below 25%.

For the compound `N#Cc1ccc(OCC2CC2)c(CCN2CC[C@@H](CN)C2)c1` [Compound 66, (S)-3-(2-(3-(aminomethyl)pyrrolidin-1-yl)ethyl)-4-(cyclopropylmethoxy)benzonitrile hydrochloride], the activation at 10 µM is not below 25%.

Consider `CCOc1ccc(CCN2CCC[C@@H](CN)C2)cc1Cl` [Compound 67, (S)-(1-(3-chloro-4-ethoxyphenethyl)piperidin-3-yl)methanamine hydrochloride], for which the activation at 10 µM was not below 25%.

For `CCOc1ccc(Cl)cc1CN1CC[C@H](N)C1` [Compound 69, (S)-1-(5-chloro-2-ethoxybenzyl)pyrrolidin-3-amine hydrochloride], the activation at 10 µM is not below 25%.

(Values after patent publication US20260193180A1, “AUTOPHAGY INDUCING COMPOUNDS AND USES THEREOF” (SAMSARA THERAPEUTICS INC., priority 2022, published 2026).)
